Measurements published in patent publication US20020035061A1, “COMPOSITIONS AND METHODS FOR TREATING INFECTIONS USING CATIONIC PEPTIDES ALONE OR IN COMBINATION WITH ANTIBIOTICS” (priority 1996, published 2002).

Test system: a bacterial strain
Assay: Killing curves, combination of cationic peptide and antibiotic agent
Format: cell-based
Details: in combination with vancomycin, FIG. 3E
Procedure: As used herein, “synergy” refers to the in vitro effect of administration of a combination of a cationic peptide and antibiotic agent such that (I) the fractional inhibitory concentration (FIC) is less than or equal to 0.5 in an FIC assay described herein; or (2) there is at least a 100-fold (21og10) increase in killing at 24 hours for the combination as compared with the antibiotic agent alone in a time kill curve assay as described herein.
Time kill curves resulting from combination of cationic peptide and antibiotic agent are compared to that resulting from agent alone.
The assay is performed as described above except that duplicate tubes are set up for each concentration of the antibiotic agent alone and of the combination of antibiotic agent and cationic peptide.

Which “killing by combination compared with peptide or antibiotic agent alone” value does the source give for KWKSFIKKLTSAAKKVVTTAKPLISS [MBI 26] here?
Its value is “greater killing than either peptide or antibiotic agent alone”.
